Assay results reported in US6264916A, “N,N-dimethyldiatrizoic acid and its conjugates as hepatobiliary agents for x-ray CT imaging” (Bracco Research, USA, priority 2000, dated 2001).
Read-outs that look alike come from different tables or passages of the source.

Columns and labels:
[1] = Biodistribution studies in mice (radioiodinated compounds, % ID/g-tissue); assay type: in vivo; conditions: tracer level, but MDTA-Na 0.18M and MDTA-NMG 0.19M; for Biodistribution, Blood 5' / Biodistribution, Kidney 5' / Biodistribution, Liver 5' / Biodistribution, Sm/Lrg. Intestine 5': 5 min; for Biodistribution, Kidney 1' / Biodistribution, Blood 1' / Biodistribution, Liver 1' / Biodistribution, Sm/Lrg. Intestine 1': 1 min; for tissue uptake at 1 min / tissue uptake at 5 min / tissue uptake at 1 h: mouse, iv; for Biodistribution, Blood 60' / Biodistribution, Kidney 60' / Biodistribution, Liver 60' / tissue uptake at 1 h / Biodistribution, Sm/Lrg. Intestine 60': 60'
Protocol: All of the new analogs were radiolabeled in order to determine their physical and biological properties. The iodinated compounds were exchange-labeled by heating with Na^125 I in the presence of CuSO4 and Na2 S2 O5 in glacial acetic acid at 135-150° C. for 1 h, followed by HPLC purification using a nucleosil C18 column and CH3 CN--H2 O containing 0.1% TFA as an eluent. In some cases (e.g. the compound of Example 12) the radioiodination was carried out by heating with Na*I in HOAc--NaOAc (pH 4.6) at 100° C. for 15 min. In all cases radiolabeled compounds of acceptable radiochemical purity and specific activity were obtained.
The compound of formula I, N,N-dimethyl-diatrizoic acid, was similarly radiolabeled for biological studies.
a) For intravenous administration the preferred vehicle for the compounds of formula I, II and III is bovine serum albumin, however, other physiologically acceptable vehicles may also be used.
Biodistribution studies were conducted in mice and the results are given in Table I. X-Ray CT images of MDTA in mice and rats indicate that these hydrophobic diatrizoate analogs may be of promise for liver imaging.

[2] = Water solubility of MDTA salts; assay type: physicochemical
Protocol: The compound of formula I, N,N-Dimethyldiatrizoic acid (I') (hereinafter sometimes referred to as MDTA) was synthesized, as in reference H. Holtermann et al., U.S. Pat. No. 3,178,673, Apr. 13, 1965, by the N-methylation of diatrizoic acid (IV) using either methyl iodide or dimethyl sulfate in aqueous media at alkaline pH to obtain pure MDTA (>99.9% purity) as a white crystalline solid (m.p. 185° C.).

| Biodistribution, Blood 5' ([1]; blood) | Biodistribution, Kidney 1' ([1]; kidney) | Biodistribution, Kidney 60' ([1]; kidney, 60 min) | Biodistribution, Liver 60' ([1]; liver, 60 min) | Biodistribution, Blood 1' ([1]; blood) | Biodistribution, Kidney 5' ([1]; kidney) | Biodistribution, Liver 1' ([1]; liver) | Biodistribution, Liver 5' ([1]; liver) | Biodistribution, Sm/Lrg. Intestine 1' ([1]; small/large intestine) | Biodistribution, Sm/Lrg. Intestine 5' ([1]; small/large intestine) | Biodistribution, Sm/Lrg. Intestine 60' ([1]; small/large intestine, 60 min) | Compound | also measured |
| --- | --- | --- | --- | --- | --- | --- | --- | --- | --- | --- | --- | --- |
| 1.21 % ID/g-tissue | 37.57 % ID/g-tissue | 0.18 % ID/g-tissue | 0.85 % ID/g-tissue | – | – | – | – | – | – | – | CC(=O)N(C)c1c(I)c(C(=O)O)c(I)c(N(C)C(C)=O)c1I [MDTA, 3,5-Bis-(Acetylmethylamino)-2,4,6-triiodobenzoic acid] | Biodistribution, Blood 60' ([1]; blood): 0.00 % ID/g-tissue; tissue uptake at 1 min ([1]; blood, blood, read-out: Biodistribution, Blood 1'): 4.56 %ID/g; tissue uptake at 5 min ([1]; kidney, kidney, read-out: Biodistribution, Kidney 5'): 21.5 %ID/g; tissue uptake at 1 min ([1]; liver, liver, read-out: Biodistribution, Liver 1'): 15.8 %ID/g; tissue uptake at 5 min ([1]; liver, liver, read-out: Biodistribution, Liver 5'): 15.4 %ID/g; tissue uptake at 1 min ([1]; small/large intestine, small/large intestine, read-out: Biodistribution, Sm/Lrg. Intestine 1'): 1.5 %ID/g; tissue uptake at 5 min ([1]; small/large intestine, small/large intestine, read-out: Biodistribution, Sm/Lrg. Intestine 5'): 4.55 %ID/g; tissue uptake at 1 h ([1]; small/large intestine, small/large intestine, read-out: Biodistribution, Sm/Lrg. Intestine 60'): 13.3 %ID/g |
| 3.66 % ID/g-tissue | 13.53 % ID/g-tissue | 0.81 % ID/g-tissue | 2.13 % ID/g-tissue | 6.63 % ID/g-tissue | 12.65 % ID/g-tissue | 12.30 % ID/g-tissue | 16.23 % ID/g-tissue | 2.03 % ID/g-tissue | 3.80 % ID/g-tissue | 16.48 % ID/g-tissue | CC(=O)N(C)c1c(I)c(C(=O)O)c(I)c(N(C)C(C)=O)c1I [MDTA-NMG] | Water solubility ([2]; listed as N-methyl-glucamine (NMG) salt): ~ 1.3 M; Biodistribution, Blood 60' ([1]; blood, 60 min): 0.12 % ID/g-tissue |
| 3.03 % ID/g-tissue | 12.97 % ID/g-tissue | 0.96 % ID/g-tissue | 2.42 % ID/g-tissue | 6.21 % ID/g-tissue | 12.72 % ID/g-tissue | 13.23 % ID/g-tissue | 17.56 % ID/g-tissue | 1.81 % ID/g-tissue | 3.92 % ID/g-tissue | 17.02 % ID/g-tissue | CC(=O)N(C)c1c(I)c(C(=O)O)c(I)c(N(C)C(C)=O)c1I [MDTA-Na] | Water solubility ([2]; listed as sodium salt): ~ 0.35 M; tissue uptake at 1 h ([1]; blood, blood, read-out: Biodistribution, Blood 60'): 0.16 %ID/g |
